In ChEMBL document CHEMBL2321844, “Discovery of nosokophic acid, a predicted intermediate of moenomycins, from nosokomycin-producing Streptomyces sp. K04-0144” (2013):
Values after ≈ are worked out from the molar mass of the structure shown. Active and inactive are the calls of the source. No cut-off for these calls is given here.

Tests used:
Format in all cases: functional
Staphylococcus aureus [1] = experiment: Antimicrobial activity against methicillin-resistant Staphylococcus aureus after 20 hrs by liquid microdilution method
Staphylococcus aureus [2] = experiment: Potentiation of streptomycin antimicrobial activity against methicillin-resistant Staphylococcus aureus at 10 ug/ml after 20 hrs by liquid microdilution method
Staphylococcus aureus [3] = experiment: Potentiation of tetracycline antimicrobial activity against methicillin-resistant Staphylococcus aureus at 10 ug/ml after 20 hrs by liquid microdilution method

C[C@@H](O)[C@H]1C(=O)N2C(C(=O)O)=C(SCCNC=N)C[C@H]12 [IMIPENEM ANHYDROUS] gave an MIC (Staphylococcus aureus [1]) of 16 µg/mL (≈ 53.4 µM).
In the case of CN[C@@H]1[C@H](O[C@H]2[C@H](O[C@H]3[C@H](O)[C@@H](O)[C@H](N=C(N)N)[C@@H](O)[C@@H]3N=C(N)N)O[C@@H](C)[C@]2(O)C=O)O[C@@H](CO)[C@H](O)[C@H]1O [STREPTOMYCIN], the “fractional inhibitory concentration index (FICI)” value (Staphylococcus aureus [2]) is reported as 1 and the MIC (Staphylococcus aureus [1]) is reported as 2 µg/mL (≈ 3.44 µM).
For CN[C@H](CC(C)C)C(=O)N[C@H]1C(=O)N[C@@H](CC(N)=O)C(=O)N[C@H]2C(=O)N[C@H]3C(=O)N[C@H](C(=O)N[C@H](C(=O)O)c4cc(O)cc(O)c4-c4cc3ccc4O)[C@H](O)c3ccc(c(Cl)c3)Oc3cc2cc(c3O[C@@H]2O[C@H](CO)[C@@H](O)[C@H](O)[C@H]2O[C@H]2C[C@](C)(N)[C@H](O)[C@H](C)O2)Oc2ccc(cc2Cl)[C@H]1O [VANCOMYCIN], the MIC (Staphylococcus aureus [1]) was 0.5 µg/mL (≈ 0.345 µM).
For CN(C)[C@@H]1C(O)=C(C(N)=O)C(=O)[C@@]2(O)C(O)=C3C(=O)c4c(O)cccc4[C@@](C)(O)[C@H]3C[C@@H]12 [TETRACYCLINE], the MIC (Staphylococcus aureus [1]) was 32 µg/mL (≈ 72 µM) and the “fractional inhibitory concentration index (FICI)” value (Staphylococcus aureus [3]) was 1.
For CC(C)=CCC/C(C)=C/CC/C(C)=C\COC(COP(=O)(O)O[C@H]1O[C@H](C(N)=O)[C@H](O)[C@H](O)[C@H]1O)C(=O)O (some centres not stated), the Activity (Staphylococcus aureus [1]) was “inactive”.
